Experimental data as given in article PMC8308911, “Pharmacokinetic Study of Anti-osteoarthritic Compounds of a Standardized Fraction from Sphaeralcea Angustifolia” (Pharmaceuticals, 2021).
Where two headings read alike, the source gives them in different places.

Legend:
[1] = Pharmacokinetics after single intravenous administration of the SaTSS standardized fraction (plasma, HPLC, PKSolver); format: in vivo, ICR mice; details: for AUC(0-t): read-out: AUC0-60 (converted); for Vd: read-out: Vss
Procedure: (§1) Analyses of HPLC were carried out in a Waters system (2695 Separation module) coupled to a diode array detector (2996) with a 190–600-nm detection range and operated by the Manager Millennium software system (Empower 1; Waters Corporation, Mexico City, Mexico). Separations were performed in a Spherisorb-ODS RP-18 column (250 × 4.6 mm, 5 µm; Waters Corporation, Mexico) employing a constant temperature of 25 °C during the analyses. Samples (20 µL) were eluted at a 1.0 mL/min flow rate with a gradient of mobile phases of (A) high-purity H2O with trifluoroacetic acid to 0.5% v/v (TFA, Sigma-Aldrich, Mexico City, Mexico) and (B) high purity CH3CN, and compounds were detected by monitoring absorbance for tomentin and scopoletin at λ = 343 nm and for sphaeralcic acid at λ = 357 nm. The mobile phase was started with water (100%) and was maintained for 1 min, then solvent B was gradually incorporated at 5% (at 2 min), at 30% (at 4 min), and at 50% (at 16 min). During the next 4 min, solvent B was increased to 100%, and this proportion was maintained for 5 min. Finally, the following 3 min were utilized to return the mobile phase to the initial condition. […] Identification of scopoletin and tomentin as well as sphaeralcic acid was performed by comparing their retention times (tomentin—11.288 min, scopoletin—11.349 min, coumarin mixure—11.457 min, and sphaeralcic acid—23.319 min) and absorbance spectra.
(§2) The mice were previously anesthetized with sodium pentobarbital (PiSA Agropecuaria), then retro-orbital sinus blood was obtained using heparinized capillaries and distributed to heparinized tubes, and tubes were centrifuged at 3500 g for 7 min. The plasma obtained was transferred to new tubes and stored at −4 °C until use.
(§3) Plasma samples were extracted with CH3CN and TFA (w/v) 20% (1:1), then vials were centrifuged at 14,000 g for 10 min and the supernatant was transferred to another vial and left to dry at room temperature. The precipitate was resuspended with 1 mL of high-purity methanol (Merk, México) and filtered through Teflon membrane (13 mm, 0.45 µm, Life Science). Each filtered sample was injected into the HPLC equipment, and the concentrations of tomentin and scopoletin at λ = 343 nm and of sphaeralcic acid at λ = 357 nm were obtained by comparison with pre-built calibration curves.
(§4) To evaluate the suitability of the assay for the pharmacokinetic studies, 400 mg/kg of the active SaTSS fraction standardized in a mixture of tomentin and scopoletin (7.1 mg/400 mg), and sphaeralcic acid (34.6 mg/400 mg) was administered orally or intravenously to the mice. The dose of SaTSS fraction was chosen based on previous research of active compounds, as the median efective dose of each compound and detectable concentrations of them in the fraction. For oral pharmacokinetics, ten animals were used in each group at different times (0, 1.3, 3.3, 5, 10, 20, 40, 60, 80, 120, and 240 min). For intravenous pharmacokinetics, three animals were used in each group at different times (2, 4, 6, 8, 10, 15, 20, 30, and 60 min) Subsequently, the mice were anesthetized, retro-orbital sinus blood was obtained, plasma samples were extracted with CH3CN and TFA (w/v) 20% (1:1), and the extracts were analyzed by HPLC for coumarin (tomentin and scopoletin) and sphaeralcic acid quantification. Pharmacokinetic calculations were performed using the observed data. All data were subsequently processed using the PKSolver add-in program for Microsoft Excel written in Visual Basic for Applications. All values obtained were expressed in mean ± Standard Deviation (SD). For the pharmacokinetic assay, the selection was made either from a one-compartment or from a two-compartment model, with the use of both the Akaike Information Criterion (AIC) and the Schwarz Criterion (SC). […]

[2] = Pharmacokinetics after single oral administration of the SaTSS standardized fraction (plasma, HPLC, PKSolver); format: in vivo, ICR mice; details: ICR, mouse, plasma, po, 400 mg/kg, oral 400 mg/kg SaTSS fraction, two-compartment model
Procedure: as §1, §2, §3, §4

[3] = ICR, mouse, plasma, iv, 400 mg/kg, intravenous 400 mg/kg SaTES fraction, One-Compartment Model
[4] = ICR, mouse, plasma, iv, 400 mg/kg, intravenous 400 mg/kg SaTES fraction, Two-Compartment Model
[5] = intravenous 400 mg/kg SaTES fraction, One-Compartment Model
[6] = intravenous 400 mg/kg SaTES fraction, Two-Compartment Model
[7] = intravenous 400 mg/kg SaTES fraction, Two-Compartment Model, 400 mg/kg
[8] = intravenous 400 mg/kg SaTES fraction, Two-Compartment Model, listed as Sphaeralcic Acid, 400 mg/kg
[9] = intravenous 400 mg/kg SaTES fraction, Two-Compartment Model, listed as sphaeralcic acid, 400 mg/kg

With `COc1c(C)cc2c(C(C)C)cc(C(=O)O)c(O)c2c1O` [Sphaeralcic acid, sphaeralcic acid] the AUC(0-inf) [1, 3] was 21300 ng·h/mL, the clearance [1, 3] was 27 mL/min/kg and the AUC(0-t) [1, 3] was 18300 ng·h/mL. It also gave a C0 ([1]; ICR, mouse, plasma, iv, 400 mg/kg, intravenous 400 mg/kg SaTES fraction, One-Compartment Model, read-out: C0) of 41700 ng/mL, an MRT ([1]; ICR, mouse, plasma, iv, 400 mg/kg, intravenous 400 mg/kg SaTES fraction, One-Compartment Model, read-out: MRT (converted)) of 30.7 min and a Vd [1, 3] of 0.828 L/kg. The half-life ([1]; ICR, mouse, plasma, iv, 400 mg/kg, intravenous 400 mg/kg SaTES fraction, One-Compartment Model, read-out: t1/2) was 21.2 min, the AUC(0-inf) [1, 4] was 20400 ng·h/mL and the clearance [1, 4] was 28 mL/min/kg. It also gave an AUC(0-t) [1, 4] of 17700 ng·h/mL, a C0 ([1]; ICR, mouse, plasma, iv, 400 mg/kg, intravenous 400 mg/kg SaTES fraction, Two-Compartment Model, read-out: C0) of 58500 ng/mL and an MRT ([1]; ICR, mouse, plasma, iv, 400 mg/kg, intravenous 400 mg/kg SaTES fraction, Two-Compartment Model, read-out: MRT (converted)) of 29.3 min. It also gave a Vd [1, 4] of 0.826 L/kg, a half-life ([1]; ICR, mouse, plasma, iv, 400 mg/kg, intravenous 400 mg/kg SaTES fraction, Two-Compartment Model, read-out: t1/2β) of 20.6 min and a concentration at 2 min ([1]; ICR, mouse, plasma, intravenous single dose 400 mg/kg SaTES fraction, 2.0 min, n = 3) of 40880 ± 210 ng/mL. It also gave a concentration at 4 min ([1]; ICR, mouse, plasma, intravenous single dose 400 mg/kg SaTES fraction, 4.0 min, n = 3) of 36280 ± 110 ng/mL, a concentration at 6 min ([1]; ICR, mouse, plasma, intravenous single dose 400 mg/kg SaTES fraction, 6.0 min, n = 3) of 33900 ± 240 ng/mL and a concentration at 8 min ([1]; ICR, mouse, plasma, intravenous single dose 400 mg/kg SaTES fraction, 8.0 min, n = 3) of 31800 ± 750 ng/mL. For the same compound, the concentration at 10 min ([1]; ICR, mouse, plasma, intravenous single dose 400 mg/kg SaTES fraction, 10 min, n = 3) was 28700 ± 650 ng/mL, the concentration at 15 min ([1]; ICR, mouse, plasma, intravenous single dose 400 mg/kg SaTES fraction, 15 min, n = 3) was 24400 ± 330 ng/mL and the concentration at 20 min ([1]; ICR, mouse, plasma, intravenous single dose 400 mg/kg SaTES fraction, 20 min, n = 3) was 21200 ± 510 ng/mL. The concentration at 30 min ([1]; ICR, mouse, plasma, intravenous single dose 400 mg/kg SaTES fraction, 30 min, n = 3) was 15800 ± 570 ng/mL, the concentration at 60 min ([1]; ICR, mouse, plasma, intravenous single dose 400 mg/kg SaTES fraction, 60 min, n = 3) was 3810 ± 90 ng/mL and the AUMC [1, 5] was 39,202.118 µg/mL*min^2. The V [1, 5] was 0.828 (mg)/(µg/mL), the k10 [1, 5] was 0.032 min⁻¹ and the “AUC0-inf ∞” value ([1]; intravenous 400 mg/kg SaTES fraction, One-Compartment Model, 400 mg/kg) was 1278.978 µg·min/mL. It also gave a k10 [1, 6] of 0.048 min⁻¹, a k12 [1, 6] of 0.249 min⁻¹ and a k21 [1, 6] of 0.624 min⁻¹. For the same compound, the t1/2α [1, 6] was 0.781 min, the α [1, 6] was 0.88 min⁻¹ and the β [1, 6] was 0.034 min⁻¹. For the same compound, the “A (plasma concentration, central compartment)” value [1, 7] was 18.03 µg/mL, the “B (plasma concentration, peripheral compartment)” value [1, 7] was 40.46 µg/mL and the “A (plasma concentration, central compartment)” value [1, 8] was 18.027 µg/mL. The AUMC [1, 8] was 35,880.304 µg/mL*min^2, the “B (plasma concentration, peripheral compartment)” value [1, 8] was 40.461 µg/mL and the C0 [1, 8] was 58489 ng/mL. For the same compound, the MRT [1, 8] was 29.294 min, the V [1, 8] was 0.591 (mg)/(µg/mL) and the AUMC [1, 9] was 35,880.30 µg/mL*min^2. The V [1, 9] was 0.59 (mg)/(µg/mL) and the AUC(0-inf) [2] was 3470 ng·h/mL.
